Values after ≈ are worked out from the molar mass of the structure shown.
What was measured:
Assay type in all cases: functional
[1] = test system: HT-29; experiment: Cytotoxicity against human HT-29 cells after 6 days by MTT assay; settings: HT-29, 144 h, read-out: ED50 (the source's name)
[2] = test system: MCF7; experiment: Cytotoxicity against human MCF7 cells after 6 days by MTT assay; settings: MCF7, 144 h, read-out: ED50 (the source's name)
[3] = test system: Malme-3M; experiment: Cytotoxicity against human MALME-3M cells after 6 days by MTT assay; settings: 144 h, read-out: ED50 (the source's name)
[4] = test system: SK-MEL; experiment: Cytotoxicity against human SK-MEL cells after 6 days by MTT assay; settings: 144 h, read-out: ED50 (the source's name)
[5] = test system: A549; experiment: Cytotoxicity against human A549 cells after 6 days by MTT assay; settings: A549, 144 h, read-out: ED50 (the source's name)

Molecule `COC(=O)c1c(-c2ccc([N+](=O)[O-])cc2)oc2cc(OC)ccc2c1=O` has an EC50 [1] of over 25 µg/mL, an EC50 [2] of over 25 µg/mL and an EC50 [3] of 1.12 µg/mL (≈ 3.15 µM). It also gave an EC50 [4] of 2.84 µg/mL (≈ 7.99 µM) and an EC50 [5] of over 25 µg/mL.
For `COC(=O)c1c(-c2ccc(OCc3ccccc3)cc2)oc2cc(OC)ccc2c1=O`, the EC50 [1] was 5.42 µg/mL (≈ 13 µM), the EC50 [2] was 5.16 µg/mL (≈ 12.4 µM) and the EC50 [3] was over 25 µg/mL. The EC50 [4] was over 25 µg/mL and the EC50 [5] was 20.4 µg/mL (≈ 49.1 µM).
With `COc1ccc2c(=O)c(C(=O)O)c(-c3ccc([N+](=O)[O-])cc3)oc2c1` the EC50 [1] was over 25 µg/mL, the EC50 [2] was over 25 µg/mL and the EC50 [3] was over 25 µg/mL. For the same molecule, the EC50 [4] was over 25 µg/mL and the EC50 [5] was over 25 µg/mL.
`COC(=O)c1c(-c2ccc(N)cc2)oc2ccccc2c1=O` showed an EC50 [1] of over 25 µg/mL, an EC50 [2] of over 25 µg/mL and an EC50 [3] of over 25 µg/mL. The EC50 [4] was over 25 µg/mL and the EC50 [5] was over 25 µg/mL.
`O=c1cc(-c2ccc([N+](=O)[O-])cc2)oc2c(O)c(O)ccc12` gave an EC50 [1] of 3.46 µg/mL (≈ 11.6 µM), an EC50 [2] of 4.69 µg/mL (≈ 15.7 µM) and an EC50 [3] of 3.61 µg/mL (≈ 12.1 µM). The EC50 [4] was 3.29 µg/mL (≈ 11 µM) and the EC50 [5] was 2.56 µg/mL (≈ 8.56 µM).
`COc1cc(-c2cc(=O)c3ccc(O)c(O)c3o2)cc(OC)c1OC` gave an EC50 [1] of 3.66 µg/mL (≈ 10.6 µM), an EC50 [2] of 1.11 µg/mL (≈ 3.22 µM) and an EC50 [3] of over 25 µg/mL. The EC50 [4] was over 25 µg/mL and the EC50 [5] was 5.27 µg/mL (≈ 15.3 µM).
For `COc1cc(-c2cc(=O)c3c(O)cccc3o2)cc(OC)c1O`, the EC50 [1] was over 25 µg/mL, the EC50 [2] was 0.51 µg/mL (≈ 1.62 µM) and the EC50 [3] was over 25 µg/mL. The EC50 [4] was over 25 µg/mL and the EC50 [5] was 0.74 µg/mL (≈ 2.35 µM).
For `CC(C)(C)[Si](C)(C)Oc1ccc(-c2cc(=O)c3ccc(O)cc3o2)cc1`, the EC50 [1] was 3.61 µg/mL (≈ 9.8 µM), the EC50 [2] was 4.66 µg/mL (≈ 12.6 µM) and the EC50 [3] was over 10 µg/mL. It also gave an EC50 [4] of 5.64 µg/mL (≈ 15.3 µM) and an EC50 [5] of 6.45 µg/mL (≈ 17.5 µM).
Work on `COc1cc(-c2cc(=O)c3ccc(O)cc3o2)cc(OC)c1OC` yielded an EC50 [1] of over 25 µg/mL, an EC50 [2] of over 25 µg/mL and an EC50 [3] of over 25 µg/mL. The EC50 [4] was over 25 µg/mL and the EC50 [5] was over 25 µg/mL.
`CC(=O)Nc1ccc(-c2cc(=O)c3ccc(OC(C)=O)cc3o2)cc1` was tested, and the EC50 [1] was 19.8 µg/mL (≈ 58.7 µM), the EC50 [2] was 19.2 µg/mL (≈ 56.9 µM) and the EC50 [3] was over 25 µg/mL. For the same molecule, the EC50 [4] was 16.9 µg/mL (≈ 50.1 µM) and the EC50 [5] was 20.5 µg/mL (≈ 60.9 µM).
`COc1cc(-c2cc(=O)c3ccc(O)cc3o2)cc(OC)c1O[Si](C)(C)C(C)(C)C` gave an EC50 [1] of 1 µg/mL (≈ 2.33 µM), an EC50 [2] of 4.47 µg/mL (≈ 10.4 µM) and an EC50 [3] of over 25 µg/mL. It also gave an EC50 [4] of over 25 µg/mL and an EC50 [5] of 5.3 µg/mL (≈ 12.4 µM).
Work on `COc1cc(-c2cc(=O)c3cc(O)ccc3o2)cc(OC)c1O` yielded an EC50 [1] of over 25 µg/mL, an EC50 [2] of over 25 µg/mL and an EC50 [3] of over 25 µg/mL. It also gave an EC50 [4] of 5.68 µg/mL (≈ 18.1 µM) and an EC50 [5] of over 25 µg/mL.
With `COc1cc(-c2cc(=O)c3ccc(O)cc3o2)cc(OC)c1O` the EC50 [1] was 6.5 µg/mL (≈ 20.7 µM), the EC50 [2] was over 25 µg/mL and the EC50 [3] was over 25 µg/mL. The EC50 [4] was over 25 µg/mL and the EC50 [5] was over 25 µg/mL.
Molecule `COc1ccc2oc(-c3cc(OC)c(OC)c(OC)c3)cc(=O)c2c1` has an EC50 [1] of over 25 µg/mL, an EC50 [2] of over 25 µg/mL and an EC50 [3] of over 25 µg/mL. It also gave an EC50 [4] of over 25 µg/mL and an EC50 [5] of over 25 µg/mL.
`COc1cc(-c2cc(=O)c3ccc(OC(C)=O)cc3o2)cc(OC)c1O` showed an EC50 [1] of over 25 µg/mL, an EC50 [2] of over 25 µg/mL and an EC50 [3] of over 25 µg/mL. It also gave an EC50 [4] of over 25 µg/mL and an EC50 [5] of over 25 µg/mL.
Molecule `COc1cc(-c2cc(=O)c3ccc(OC(C)=O)c(OC(C)=O)c3o2)cc(OC)c1O[Si](C)(C)C(C)(C)C` has an EC50 [1] of over 25 µg/mL, an EC50 [2] of over 25 µg/mL and an EC50 [3] of 0.31 µg/mL (≈ 0.586 µM). It also gave an EC50 [4] of 0.14 µg/mL (≈ 0.265 µM) and an EC50 [5] of over 25 µg/mL.
`CC(=O)Nc1ccc(-c2cc(=O)c3c(OC(C)=O)cc(OC(C)=O)cc3o2)cc1` gave an EC50 [1] of 17.4 µg/mL (≈ 44 µM), an EC50 [2] of 1.78 µg/mL (≈ 4.5 µM) and an EC50 [3] of over 25 µg/mL. It also gave an EC50 [4] of 14 µg/mL (≈ 35.3 µM) and an EC50 [5] of 22 µg/mL (≈ 55.6 µM).
Work on `COc1cc(-c2cc(=O)c3cc(O)ccc3o2)cc(OC)c1O[Si](C)(C)C(C)(C)C` yielded an EC50 [1] of 2.63 µg/mL (≈ 6.14 µM), an EC50 [2] of 2.01 µg/mL (≈ 4.69 µM) and an EC50 [3] of 5.3 µg/mL (≈ 12.4 µM). The EC50 [4] was 2.95 µg/mL (≈ 6.88 µM) and the EC50 [5] was 3.19 µg/mL (≈ 7.44 µM).
Molecule `COc1cc(-c2cc(=O)c3ccc(O)c(O)c3o2)cc(OC)c1O` has an EC50 [1] of 5.12 µg/mL (≈ 15.5 µM), an EC50 [2] of over 25 µg/mL and an EC50 [3] of over 25 µg/mL. The EC50 [4] was 6.33 µg/mL (≈ 19.2 µM) and the EC50 [5] was over 25 µg/mL.
`O=c1cc(-c2cccc(O)c2)oc2ccc(O)cc12` showed an EC50 [1] of over 25 µg/mL, an EC50 [2] of over 25 µg/mL and an EC50 [3] of over 25 µg/mL. For the same molecule, the EC50 [4] was over 25 µg/mL and the EC50 [5] was over 25 µg/mL.
With `COc1cc(-c2cc(=O)c3ccc(O)c(O)c3o2)cc(OC)c1O[Si](C)(C)C(C)(C)C` the EC50 [1] was 0.34 µg/mL (≈ 0.765 µM), the EC50 [2] was 0.31 µg/mL (≈ 0.697 µM) and the EC50 [3] was 0.2 µg/mL (≈ 0.45 µM). The EC50 [4] was 0.11 µg/mL (≈ 0.247 µM) and the EC50 [5] was 3.31 µg/mL (≈ 7.45 µM).
`O=c1cc(-c2cccc(O)c2)oc2cccc(O)c12` showed an EC50 [1] of 3.47 µg/mL (≈ 13.6 µM), an EC50 [2] of 6.93 µg/mL (≈ 27.3 µM) and an EC50 [3] of over 10 µg/mL. It also gave an EC50 [4] of 3.09 µg/mL (≈ 12.2 µM) and an EC50 [5] of 3.24 µg/mL (≈ 12.7 µM).
For `COc1cc(-c2cc(=O)c3cc(O)ccc3o2)cc(OC)c1OC`, the EC50 [1] was 7.85 µg/mL (≈ 23.9 µM), the EC50 [2] was over 25 µg/mL and the EC50 [3] was over 25 µg/mL. For the same molecule, the EC50 [4] was 5.87 µg/mL (≈ 17.9 µM) and the EC50 [5] was 9.82 µg/mL (≈ 29.9 µM).
With `COc1cc(-c2cc(=O)c3ccc(OC(C)=O)cc3o2)cc(OC)c1O[Si](C)(C)C(C)(C)C` the EC50 [1] was 1.94 µg/mL (≈ 4.12 µM), the EC50 [2] was 4.19 µg/mL (≈ 8.9 µM) and the EC50 [3] was 2.95 µg/mL (≈ 6.27 µM). For the same molecule, the EC50 [4] was 0.8 µg/mL (≈ 1.7 µM) and the EC50 [5] was 2.9 µg/mL (≈ 6.16 µM).
With `COc1ccc2c(=O)cc(-c3cc(OC)c(OC)c(OC)c3)oc2c1` the EC50 [1] was over 25 µg/mL, the EC50 [2] was over 25 µg/mL and the EC50 [3] was over 25 µg/mL. It also gave an EC50 [4] of over 25 µg/mL and an EC50 [5] of over 25 µg/mL.
With `COc1ccc2oc(-c3ccc(O)cc3)c(C(=O)O)c(=O)c2c1` the EC50 [1] was over 25 µg/mL, the EC50 [2] was over 25 µg/mL and the EC50 [3] was over 25 µg/mL. The EC50 [4] was over 25 µg/mL and the EC50 [5] was over 25 µg/mL.

Source: ChEMBL document CHEMBL1150207, “Cytotoxicities of some flavonoid analogues” (1991)
